We go through one molecule from PMC11488110 (Theranostics, 2024).

One data set relates to primary mouse astrocytes. Briefly: Cytotoxicity assay (EZ-Cytox) in primary mouse astrocytes. The data set is classed as cell-based. The conditions noted are these: up to 30 μM, 24 h.
Data set [1] is described as follows: Metabolic stability assay in liver microsomes. It counts as in vitro ADME, dog. The settings on record: 1 μM, 30 min. Here is the method: (§1) The metabolic stability assay was performed by incubation of human and selected animal liver microsomes (dog, rat, and mouse) with the test compound at a final concentration of 1 μM, in the presence of 0.5 mg/ml microsomal protein and NADPH-regeneration system, in a total volume of 100 μL phosphate buffer 100 mM (pH 7.4) at 37 °C. The incubation was started by introducing the NADPH-regeneration system and terminated by adding 40 μL of ice-cold acetonitrile at 0- and 30 min. Precipitated proteins were removed by centrifugation at 10,000 g and 4 °C for 5 min. Aliquots of the supernatant were injected onto an LC-MS/MS system. Incubations terminated prior to addition of the NADPH-regeneration system (time point, 0 min) were used as standards, defined as 100%. Percent of the parent compound remaining was calculated by comparing peak areas.
(§2) Ta b l e S2 . CYP inhibition, microsomal stability, and hERG in hibition of 5a .
(§3) CYP inhibitiona Microsomal stabilityb
(§4) ( % of c ont rol ac ti vit y) (% of remaining compound) hERG inhibitionc (IC50, μ M) […]
(§5) aCytochrome P450 (CYP450) enzyme activity was measured by incubating CYP450 enzyme isotype-specific substrates and liver microsomes in the presence of the test compound (10 μM) for 15 min. […]
(In general: Microsomes from liver hold many membrane-bound enzymes, among them those of drug oxidation.)

For data set [2], the system named is PPARδ target genes (Pdk4, Angptl4, Cd36). Briefly: qRT-PCR of PPARδ target genes in BV-2 microglia and mouse cortex. The data set is classed as cell-based. The conditions noted are these: in vitro (BV-2, 24 h) and in vivo (cortex). Here is the method: Total RNA was isolated using TRIzol® (Invitrogen). Genomic DNA was removed and complementary DNA was synthesized from 500 ng total RNA using the iScript™ gDNA Clear cDNA Synthesis Kit (Bio-Rad). Real-time PCR was performed using the CFX Connect™ Real-Time PCR Detection System (Bio-Rad) using iQ™ SYBR® Green Supermix (Bio-Rad). The hypoxanthine phosphoribosyltransferase (Hprt) was used to normalize mRNA expression levels. Primer sequences used are described in Table S6.
Figure S8. 5a induces transcriptional activation of PPAR δ targ et genes in vitro an d in vivo.
(A-B) qRT-PCR anal ysi s of relative mRNA expression of Ppard and its downstream t arget genes, including Pdk4 , Angptl4, and Cd36. (A) BV-2 microglia were treated with 5a or […]
treated control (one -wa y ANOVA with Dunnett’s test). (B) Cortical homogenates from 10 - month- old WT and APP/PS1 mice treated with vehicle or 5a (30 m g/kg/day for 10 da ys, p.o ) were used for anal ysis (n = 3–4 mice per group). *P < 0.05 and ****P < 0.0001; n.s., not significant (one-wa y ANOVA with Tukey’s test). Hprt mRNA levels were used to normalize the expression of each gene.Data are p resented as mean ± SEM. GW: GW501516.
(1 picture or pasted object on this page, not shown here)
(In general: Real-time PCR tracks product formation cycle by cycle.)

The test system of data set [3] is Salmonella typhimurium TA100. Briefly: Ames MPF mutagenicity assay, TA100. The data set is classed as cell-based. Here is the method:
An Ames microplate format (MPF) 98/100 mutagenesis assay kit (Xenometrix) was used to test mutagenic activity. The TA98 / TA100 Salmonella strain was inoculated into the bacterial culture medium and cultured overnight. The Salmonella test strain was then exposed to six concentrations of the test compound (plus positive and negative controls). Samples were prepared in 96-well plates in sterile DMSO. The cultured bacteria, test compound, and S9 mixture were incubated for 90 min at 37 °C in a shaking incubator. The mixture was then treated with an indicator medium and dispensed into 384-well plates. The plates were incubated at 37 °C for 48 h. The number of wells containing revertant colonies was counted for each dose.
Ta b l e S4 . Tw o -strain Ames mutagenic assess ment of 5a.
Straina Activity in the absence (-) of S9b Activity in the presence (+) of S9b TA 9 8 Negative (-) Negative (-)
TA 1 0 0 Negative (-) Negative (-) aSalmonella typhimurium strains TA98 (hi s D3052 mutation) and TA100 (hisG46 mutation) were used to detect frameshift mutations and base- pair substitution mutations, respectively. bAroclor 1254- induced rat liver S9 fraction for exogenous metabolic activation.

A short description of data set [4]: Metabolic stability assay in liver microsomes. The data set is classed as in vitro ADME, rat. The conditions noted are these: 1 μM, 30 min. As for the experimental part:
as §1, §2, §3, §4, §5

A further data set deals with BV-2 microglial cells. The data set is described as follows: Cytotoxicity assay (EZ-Cytox) in BV-2 microglia. The conditions noted are these: up to 20 μM, 24 h. The data set is classed as cell-based, mouse. Here is the method: The in vitro cytotoxicity of 5a was evaluated using the EZ-Cytox assay kit (DoGenBio, South Korea). […] Absorbance was measured at 450 nm, after 1 h of incubation with EZ-Cytox containing water-soluble tetrazolium salt (WST), using a SpectraMax®i3 microplate reader (Molecular Devices).

The target of another data set is T1, hPPARδ (Homo sapiens, UniProt Q03181).
T1 construct: expressed in transfected cells; host or cells: CV-1 monkey kidney cells
T1 sequence (Q03181 1-441): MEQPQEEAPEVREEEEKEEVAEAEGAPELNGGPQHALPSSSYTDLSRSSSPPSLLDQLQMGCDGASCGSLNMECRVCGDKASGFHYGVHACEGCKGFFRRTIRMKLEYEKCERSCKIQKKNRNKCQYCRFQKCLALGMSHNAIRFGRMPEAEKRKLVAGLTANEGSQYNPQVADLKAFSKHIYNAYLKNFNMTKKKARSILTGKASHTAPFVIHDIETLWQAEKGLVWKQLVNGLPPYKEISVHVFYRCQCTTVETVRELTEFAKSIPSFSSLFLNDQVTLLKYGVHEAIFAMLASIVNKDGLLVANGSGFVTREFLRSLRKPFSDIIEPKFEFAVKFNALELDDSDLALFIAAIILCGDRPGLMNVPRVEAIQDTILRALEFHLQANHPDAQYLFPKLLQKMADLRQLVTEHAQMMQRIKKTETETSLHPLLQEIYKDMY
The data set is described as follows: In vitro co-transfection (PPRE-luciferase) assay in CV-1 cells, hPPARδ. The data set is classed as cell-based.

Molecules are shown by their SMILES. “Also recorded” adds a separate entry of the source.

Usually EC50 stands for the concentration that produces a half-maximal response. With `Cc1cc(SCc2[se]c(-c3ccc(C(F)(F)F)cc3)nc2C)ccc1OCC(=O)O` [Compound 5a, {2-Methyl-4-[4-methyl-2-(4-trifluoromethyl-phenyl)-selenazol-5-yl-methylsulfanyl]-phenoxy}-acetic acid], in the data set with primary mouse astrocytes, the “Cytotoxicity in primary astrocytes” value is on record as “no cytotoxicity”. For the same molecule, the “Microsomal stability, Dog (% of remaining compound)” value in data set [1] is on record as 91.3 % of remaining compound. The “Transcription of PPARδ target genes Pdk4, Angptl4, Cd36” value in data set [2] is reported as “induced transcriptional activation”. Further, in data set [3] (TA100, with rat liver S9), the “Ames mutagenic activity in the presence (+) of S9” value is reported as “Negative (-); also recorded: lacks mutagenicity”. Further, the “Ames mutagenic activity in the absence (-) of S9” value in data set [3] (TA100, without S9) is on record as “Negative (-); also recorded: lacks mutagenicity”. The “Microsomal stability, Rat (% of remaining compound)” value in data set [4] is 73.3 % of remaining compound. Further, the “Viability of BV-2 cells” value in the data set with BV-2 microglial cells is reported as “did not affect the viability; also recorded: less cytotoxic than GW501516”. The EC50 at hPPARδ (co-transfection assay, CV-1 cells, 24 h, read-out: Potency (EC50) hPPARδ) was 700 pM. The “Selectivity index hPPARα/hPPARδ” value at hPPARδ (ratio EC50(hPPARα)/EC50(hPPARδ)) was greater than 14000. At hPPARδ (ratio EC50(hPPARγ)/EC50(hPPARδ)), the “Selectivity index hPPARγ/hPPARδ” value is given as greater than 14000.
